# Read-outs that look alike come from different tables or passages of the source. Where no end group is shown, it is not given here.
# Columns and labels:
# Assay in all cases: biochemical
# Type in all cases: binding
# HLA-B*18:01 = target: T1, HLA-B*18:01 (Homo sapiens, UniProt P01889, A329T/A93T/A95T/C349S/D201E/D54G/D98Y/E176V/E187T/E204Q/E69T/K202T/Q94N/R155S/R180L/S121R/V306I/Y140S/Y195H/Y33H/Y91S)
# T1 construct: made in house
# HLA-B*44:03 = target: T2, HLA-B*44:03 (Homo sapiens, UniProt P01889, A223V/A65T/A93T/A95T/D201E/D98Y/E176V/E187L/E204Q/E69K/G107R/H137Y/K202T/L105A/L119I/N104T/N87E/Q56L/Q94N/R106L/R155S/R180L/S101N/S121R/S35A/S48T/T118I/V36M/W191S/Y140D/Y91S); settings: synthetic peptide, purified MHC
# T2 construct: made in house
# HLA-B*15:01 = target: T3, HLA-B*15:01 (Homo sapiens, UniProt P01889, A329T/A93T/A95T/C349S/D201E/D98Y/E187L/E204Q/E69M/E70A/K202T/N87E/Q94N/R155S/R180W/S121R/S35A/S48A/V306I/V36M/Y140S/Y91S)
# T3 construct: made in house
# HLA-A*01:01 = target: T4, HLA-A*01:01 (Homo sapiens, UniProt P04439, A114D/A174V/A182V/D101N/D185E/E176A/E190D/L180R/Q94H/R68K/S129P/T187R/V100A/V91M/W191G); settings: synthetic peptide, purified MHC
# T4 construct: made in house
# HLA-B*51:01 = target: T5, HLA-B*51:01 (Homo sapiens, UniProt P01889, A329T/A93T/A95T/C349S/D138N/D201E/D98Y/E187L/E204Q/E69T/G107R/I218V/K202T/L105A/L119W/N104I/Q94N/R106L/R155S/R180L/S101N/S121T/S35A/S48A/V306I/V36M/Y195H/Y91F); settings: synthetic peptide, purified MHC
# T5 construct: made in house
# HLA-A*26:01 = HLA-A*26:01 (Homo sapiens, UniProt P04439, A114D/A173T/A270S/D101N/D185E/E277Q/E87N/F33Y/G231S/I121R/I218V/K168Q/L180W/L300P/L318F/P208A/P217A/Q86R/Q94H/R138Q/S129P/T187R/T323A/T345S/V100A/V358M)
# HLA-B*44:02 = target: T6, HLA-B*44:02 (Homo sapiens, UniProt P01889, A223V/A65T/A93T/A95T/D201E/D98Y/E176V/E187L/E204Q/E69K/G107R/H137Y/K202T/L105A/L119I/N104T/N87E/Q56L/Q94N/R106L/R155S/R180D/S101N/S121R/S35A/S48T/T118I/V36M/W191S/Y140D/Y91S); settings: synthetic peptide, purified MHC
# T6 construct: made in house
# HLA-A*02:01 = target: T7, HLA-A*02:01 (Homo sapiens, UniProt P04439, D140Y/D185E/D98H/E176V/E277Q/G131W/G231S/I119V/I121R/I166T/I218V/L300P/L318F/N151K/N90K/P208A/P217A/Q86G/Q94H/R138H/R169H/T345S)
# T7 construct: made in house
# [1] = read-out: Binding in vitro (IC50, [nM])
sequence,measurement,setting,value
KNIDGYFKIY,IC50,HLA-B*18:01; [1],> 70000 nM
DEFVVVTV,IC50,HLA-B*18:01; [1],< 0.5 nM
APRITFGGP [Peptide 29],IC50,HLA-B*44:03,> 70 µM
same,IC50,HLA-B*15:01,> 70 µM
same,IC50,HLA-A*01:01,> 70 µM
same,IC50,HLA-B*51:01,> 70 µM
same,IC50,HLA-A*26:01,> 70 µM
same,IC50,HLA-B*18:01,> 70000 nM
same,IC50,HLA-B*44:02,> 70 µM
GLITLSYHL,IC50,"HLA-A*02:01; HLA allele A0201, peptide detected in HEK293T, IC50 <500 nM indicates binding, read-out: Binding in vitro (IC50, [nM])",< 0.5 nM
same,IC50,"HLA-A*02:01; read-out: IC50, binding to HLA-A*02:01",< 0.5 nM

# From patent US12419948B2, “Immunogenic compositions and use thereof” (priority 2020, dated 2025)
